Source: patent publication US20240409585A1, “MACROCYCLIC IMMUNOMODULATORS” (priority 2021, published 2024)
Like-named read-outs stand apart in the source and are kept apart here. Bridge positions count the residues as written; N and C are the ends. Square brackets hold non-standard residues; d marks the D form. Peptide text beside a SMILES is read from it. * marks the point of attachment. ξ: configuration not given here. Tyr(3-NO2) = N[C@@H](Cc1ccc(O)c([N+](=O)[O-])c1)C(=O)O; Phe(4-COOH) = N[C@@H](Cc1ccc(C(=O)O)cc1)C(=O)O; Bip = N[C@@H](Cc1ccc(-c2ccccc2)cc1)C(=O)O; Phe(3-Me) = Cc1cccc(C[C@H](N)C(=O)O)c1; Val(3-OH) = CC(C)(O)[C@H](N)C(=O)O; 4Pal = N[C@@H](Cc1ccncc1)C(=O)O; pS = N[C@@H](COP(=O)(O)O)C(=O)O; Cha = N[C@@H](CC1CCCCC1)C(=O)O; Cit = NC(=O)NCCC[C@H](N)C(=O)O; Ile(3ξ) = CCC(C)[C@H](N)C(=O)O; Carboxymethyl = O=C(O)C*; NMeA = CN[C@@H](C)C(=O)O; Dab = NCC[C@H](N)C(=O)O; Dap = NC[C@H](N)C(=O)O; ξC = NC(CS)C(=O)O

Biological target: T1, PE-labeled human PD-L1-Ig binding to Jurkat cell line over-expressing human PD-1 (Jurkat-PD-1) (Homo sapiens, UniProt Q15116)
T1 construct: expressed in transfected cells; host or cells: Jurkat
Test: Jurkat-PD-1 Cell Binding High-Content Screening Assay (CBA): Method 1
Details: Jurkat-hPD-1 cells, PE-labeled PD-L1-Ig 20 nM final

[1] = read-out: Jurkat HPDL1 PD1 IC50 (uM) (Method 1)

T1 sequence (Q15116 25-288): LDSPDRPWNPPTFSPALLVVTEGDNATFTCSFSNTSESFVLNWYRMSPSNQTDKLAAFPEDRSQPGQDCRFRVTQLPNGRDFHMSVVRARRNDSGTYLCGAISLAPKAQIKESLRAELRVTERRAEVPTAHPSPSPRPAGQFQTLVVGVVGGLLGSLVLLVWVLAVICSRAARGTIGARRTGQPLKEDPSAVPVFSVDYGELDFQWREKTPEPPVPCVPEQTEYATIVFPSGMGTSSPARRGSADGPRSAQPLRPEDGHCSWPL

SMILES | IC50 [1] [µM] | IC50 (Jurkat HPDL1 PD1 IC50 (uM) (Method 1)) [µM]
CCC(C)[C@@H]1NC(=O)[C@H](Cc2ccc(-c3ccccc3)cc2)NC(=O)[C@H](CC(C)C)NC(=O)[C@H](Cc2c[nH]c3ccccc23)NC(=O)[C@H](CC(=O)O)NC(=O)[C@H](Cc2ccc(C(=O)O)cc2)NC(=O)[C@H](Cc2ccc(OCC(=O)O)cc2)NC(=O)CSC[C@@H](C(=O)N[C@@H](CO)C(N)=O)NC(=O)[C@H]([C@@H](C)O)NC(=O)[C@H](C(C)C)NC(=O)[C@H](CC2CCCCC2)NC(=O)[C@H](CCN)NC(=O)[C@@H](CC(C)C)NC(=O)[C@H](C)N(C)C1=O (stereo partly drawn) [Compound 1928] ({CH2CO}-Y(Carboxymethyl)[Phe(4-COOH)]DWL[Bip][Ile(3ξ)][NMeA][dL][Dab][Cha]VTCS-NH2; thioether N-14) | 0.02 | –
CC(C)C[C@@H]1NC(=O)[C@H](CCCNC(=N)N)NC(=O)[C@@H](Cc2ccccc2)NC(=O)[C@H](C)N(C)C(=O)[C@H](CCCNC(=N)N)NC(=O)[C@H](Cc2ccc(-c3ccccc3)cc2)NC(=O)[C@H](C(C)C)NC(=O)[C@H](Cc2c[nH]c3ccccc23)NC(=O)[C@H](CC(=O)O)NC(=O)[C@H](Cc2ccc(O)c([N+](=O)[O-])c2)NC(=O)[C@H](CC(N)=O)NC(=O)CSC[C@@H](C(=O)N[C@@H](C)C(N)=O)NC(=O)[C@H]([C@@H](C)O)NC(=O)[C@H](C(C)C)NC1=O [Compound 1167] ({CH2CO}-N[Tyr(3-NO2)]DWV[Bip]R[NMeA][dF]RLVTCA-NH2; thioether N-14) | 0.1 | –
CC(C)C[C@@H]1NC(=O)[C@H](CCN)NC(=O)[C@@H](CC(C)C)NC(=O)[C@H](C)N(C)C(=O)[C@H](CCCNC(=N)N)NC(=O)[C@H](Cc2ccc(-c3ccccc3)cc2)NC(=O)[C@H](C(C)C)NC(=O)[C@H](Cc2c[nH]c3ccccc23)NC(=O)[C@H](CC(=O)O)NC(=O)[C@H](Cc2ccc(O)cc2)NC(=O)[C@H](CC(N)=O)NC(=O)CSC[C@@H](C(=O)N[C@@H](C)C(N)=O)NC(=O)[C@H](CO)NC(=O)[C@H](C(C)C)NC1=O [Compound 1054] ({CH2CO}-NYDWV[Bip]R[NMeA][dL][Dab]LVSCA-NH2; thioether N-14) | – | 0.09
CC(C)C[C@@H]1NC(=O)[C@H](Cc2c[nH]c3ccccc23)NC(=O)[C@H](CC(=O)O)NC(=O)[C@H](Cc2ccc(OCC(=O)O)cc2)NC(=O)[C@H](Cc2ccccc2)NC(=O)CSC[C@@H](C(=O)N[C@@H](C)C(N)=O)NC(=O)[C@H](CO)NC(=O)[C@H](C(C)C)NC(=O)[C@H](CC(C)C)NC(=O)[C@H](CC(N)=O)NC(=O)[C@@H](CC(C)C)NC(=O)[C@H](C)N(C)C(=O)[C@H](CC(=O)O)NC(=O)[C@H](Cc2ccc(-c3ccccc3)cc2)NC1=O [Compound 2029] ({CH2CO}-FY(Carboxymethyl)DWL[Bip]D[NMeA][dL]NLVSCA-NH2; thioether N-14) | 0.04 | –
CC[C@H](C)[C@@H]1NC(=O)[C@H](Cc2ccc(-c3ccccc3)cc2)NC(=O)[C@H](C(C)C)NC(=O)[C@H](Cc2c[nH]c3ccccc23)NC(=O)[C@H](CC(=O)O)NC(=O)[C@H](Cc2ccc(O)cc2)NC(=O)[C@H](CC(N)=O)NC(=O)CSC[C@@H](C(=O)N[C@@H](C)C(N)=O)NC(=O)[C@H](CO)NC(=O)[C@H](C(C)C)NC(=O)[C@H](CC(C)C)NC(=O)[C@H](CCCCN)NC(=O)[C@@H](CC(C)C)NC(=O)[C@H](C)N(C)C1=O [Compound 1480] ({CH2CO}-NYDWV[Bip]I[NMeA][dL]KLVSCA-NH2; thioether N-14) | 0.04 | –
CC(C)C[C@H]1NC(=O)[C@H](C)N(C)C(=O)[C@H](CCCNC(N)=O)NC(=O)[C@H](Cc2ccc(-c3ccccc3)cc2)NC(=O)[C@H](C(C)C)NC(=O)[C@H](Cc2c[nH]c3ccccc23)NC(=O)[C@H](CC(=O)O)NC(=O)[C@H](Cc2ccc(O)cc2)NC(=O)[C@H](CN)NC(=O)CSC[C@@H](C(=O)N[C@@H](C)C(N)=O)NC(=O)[C@H]([C@@H](C)O)NC(=O)[C@H](C(C)C)NC(=O)[C@H](CC2CCCCC2)NC(=O)[C@H](CCCNC(=N)N)NC1=O [Compound 1503] ({CH2CO}-[Dap]YDWV[Bip][Cit][NMeA][dL]R[Cha]VTCA-NH2; thioether N-14) | 0.01 | –
CCC(C)[C@@H]1NC(=O)[C@H](Cc2ccc(-c3ccccc3)cc2)NC(=O)[C@H](C(C)C)NC(=O)[C@H](Cc2cccc(C)c2)NC(=O)[C@H](CC(=O)O)NC(=O)[C@H](Cc2ccc(OCC(=O)O)cc2)NC(=O)[C@H](Cc2ccncc2)NC(=O)CSCC(C(=O)N[C@@H](CCC(=O)O)C(=O)N[C@@H](CN)C(=O)O)NC(=O)[C@H](CO)NC(=O)[C@H](C(C)C)NC(=O)[C@H](CC2CCCCC2)NC(=O)[C@H](CC(N)=O)NC(=O)[C@@H](CC(C)C)NC(=O)[C@H](C)N(C)C1=O (stereo partly drawn) [Compound 2007] ({CH2CO}-[4Pal]Y(Carboxymethyl)D[Phe(3-Me)]V[Bip][Ile(3ξ)][NMeA][dL]N[Cha]VS[ξC]E[Dap]-OH; thioether N-14) | 0.01 | –
CC(C)C[C@@H]1NC(=O)[C@H](Cc2c[nH]c3ccccc23)NC(=O)[C@H](CC(=O)O)NC(=O)[C@H](Cc2ccc(O)cc2)NC(=O)[C@H](CC(N)=O)NC(=O)CSC[C@@H](C(=O)N[C@@H](C)C(N)=O)NC(=O)[C@H](CO)NC(=O)[C@H](C(C)C)NC(=O)[C@H](CC(C)C)NC(=O)[C@H](CCN)NC(=O)[C@@H](C)NC(=O)[C@H](C)N(C)C(=O)[C@H](CCCNC(=N)N)NC(=O)[C@H](Cc2ccc(-c3ccccc3)cc2)NC1=O [Compound 1758] ({CH2CO}-NYDWL[Bip]R[NMeA][dA][Dab]LVSCA-NH2; thioether N-14) | 0.03 | –
CC(C)C[C@@H]1NC(=O)[C@H](Cc2c[nH]c3ccccc23)NC(=O)[C@H](CC(=O)O)NC(=O)[C@H](Cc2ccc(C(=O)O)cc2)NC(=O)[C@H](Cc2ccc(OCC(=O)O)cc2)NC(=O)CSC[C@@H](C(=O)N[C@@H](CCN)C(N)=O)NC(=O)[C@H](CCC(=O)O)NC(=O)[C@H](C(C)(C)O)NC(=O)[C@H](CC2CCCCC2)NC(=O)[C@H](CCN)NC(=O)[C@@H](CC(C)C)NC(=O)[C@H](C)N(C)C(=O)[C@H](C(C)(C)O)NC(=O)[C@H](Cc2ccc(-c3ccccc3)cc2)NC1=O [Compound 1717] ({CH2CO}-Y(Carboxymethyl)[Phe(4-COOH)]DWL[Bip][Val(3-OH)][NMeA][dL][Dab][Cha][Val(3-OH)]EC[Dab]-NH2; thioether N-14) | 0.02 | –
CC(C)C[C@@H]1NC(=O)[C@H](Cc2c[nH]c3ccccc23)NC(=O)[C@H](COP(=O)(O)O)NC(=O)[C@H](Cc2ccc(O)cc2)NC(=O)[C@H](Cc2ccccc2)NC(=O)CSC[C@@H](C(=O)N[C@@H](C)C(N)=O)NC(=O)[C@H](CO)NC(=O)[C@H](C(C)C)NC(=O)[C@H](CC(C)C)NC(=O)[C@H](CC(N)=O)NC(=O)[C@@H](C)NC(=O)[C@H](C)N(C)C(=O)[C@H](C(C)C)NC(=O)[C@H](Cc2ccc(-c3ccccc3)cc2)NC1=O [Compound 1821] ({CH2CO}-FY[pS]WL[Bip]V[NMeA][dA]NLVSCA-NH2; thioether N-14) | 0.49 | –
Cc1cccc(C[C@@H]2NC(=O)[C@H](CC(N)=O)NC(=O)CSC[C@@H](C(=O)N[C@@H](C)C(N)=O)NC(=O)[C@H]([C@@H](C)O)NC(=O)[C@H](C(C)C)NC(=O)[C@H](CC(C)C)NC(=O)[C@H](CCN)NC(=O)[C@@H](CC(C)C)NC(=O)[C@H](C)N(C)C(=O)[C@H](CCCNC(=N)N)NC(=O)[C@H](Cc3ccc(-c4ccccc4)cc3)NC(=O)[C@H](C(C)C)NC(=O)[C@H](Cc3c[nH]c4ccccc34)NC(=O)[C@H](CC(=O)O)NC2=O)c1 [Compound 1305] ({CH2CO}-N[Phe(3-Me)]DWV[Bip]R[NMeA][dL][Dab]LVTCA-NH2; thioether N-14) | 0.2 | –
